Calls of active or inactive are those of the source.
What was measured:
cells [1] = type: functional, cell-based
cells [2] = type: functional, cell-based; remark: listed apart in the source
X-box-binding protein 1 = X-box-binding protein 1 (Homo sapiens, UniProt P17861); type: functional, Cricetulus griseus;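 note: confirmatory dose-response counter-screen serving a CHOP assay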
[3] = non-specific 3'UTR reporter inhibition in Clone20-Shn3RL – cell-based, Renilla luciferase, cherry-picked, counter-screen for Shn3 inhibitor project, dose response (AID 624133); type: functional
[4] = reduction of Shn3 3'UTR-driven luciferase in osteoblasts – cell-based, Clone20 osteoblasts, firefly luciferase, cherry-picked, dose response (AID 624132); type: functional;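 note: firefly luciferase luminescence from reporter carrying the Shn3 3'UTR in osteoblasts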
HEK293 [5] = experiment: cells; conditions: Homo sapiens
[6] = viability loss in HEK293T cells – cell-based, cherry-picks, cytotoxicity control for HIV Vif inhibitor project, dose response (AID 652208); type: functional
HEK293 [7] = experiment: cells; conditions: Homo sapiens; remark: listed apart in the source
BJ [8] = experiment: growth inhibition of engineered Ras-driven BJ cells – cell-based, alamar blue fluorescence, cherrypicked samples, dose response (AID 2631); type: functional; conditions: Homo sapiens;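 note: confirmatory dose-response assay in RAS-dependent BJ fibroblasts engineered with TERT, LT and ST, with cytotoxicity read by fluorescence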
[9] = molecular target: T1, Heat shock factor protein 1 (Mus musculus, UniProt P38532); experiment: enhancement of HSF1-driven luciferase signal – cell-based, NIH3T3, luminescence, dose retest, confirmation (AID 435004); type: functional;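 note: stress induced by proteasome inhibitor MG132 added 30 min after compound; luciferase reporter driven by HSF1 response element in NIH3T3 cells; actives raise luminescence as potentiators of the MG132 stress response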
T1 sequence (P38532 whole entry): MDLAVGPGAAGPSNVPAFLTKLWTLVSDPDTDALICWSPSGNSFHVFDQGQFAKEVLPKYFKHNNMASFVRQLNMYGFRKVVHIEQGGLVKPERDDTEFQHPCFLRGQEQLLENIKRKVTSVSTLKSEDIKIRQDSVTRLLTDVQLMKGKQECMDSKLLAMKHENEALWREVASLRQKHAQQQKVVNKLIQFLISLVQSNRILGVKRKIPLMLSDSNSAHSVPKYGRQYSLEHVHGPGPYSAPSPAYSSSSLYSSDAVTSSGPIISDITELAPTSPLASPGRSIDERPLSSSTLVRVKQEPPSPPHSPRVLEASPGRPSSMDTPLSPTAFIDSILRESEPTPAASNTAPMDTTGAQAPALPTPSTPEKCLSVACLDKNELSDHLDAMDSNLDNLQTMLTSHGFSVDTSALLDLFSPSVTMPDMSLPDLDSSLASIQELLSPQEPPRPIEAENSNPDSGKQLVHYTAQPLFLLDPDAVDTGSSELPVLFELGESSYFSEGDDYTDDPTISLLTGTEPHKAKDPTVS

[10] = loss of viability in HepG2 cells – cell-based, CellTiter-Glo, cherry-picked, cytotoxicity control for Shn3 inhibitor project, dose response (AID 624134); type: functional
Cytochrome P450 2C9 = Cytochrome P450 2C9 (Homo sapiens, UniProt P11712)
[11] = molecular target: Dual specificity protein phosphatase 3 (Homo sapiens, UniProt P51452); experiment: VHR phosphatase inhibition, dose response, selectivity assay for STEP inhibitor project, biochemical (AID 602374); type: functional; conditions: read-out: IC50_Mean
[12] = molecular target: Tyrosine-protein phosphatase non-receptor type 5 (Homo sapiens, UniProt P54829); experiment: PTPN5 enzyme inhibition – biochemical, fluorescence intensity, uHTS hits, confirmation (AID 602372); type: functional; conditions: read-out: IC50_Mean
[13] = molecular target: T2, Beta-2 adrenergic receptor (Homo sapiens, UniProt P07550); experiment: ADRB2 activation measured by internalization – cell-based, FAP fluorogen, flow cytometry, cherry pick 1, dose response (AID 588763); type: functional
[14] = molecular target: T2, Beta-2 adrenergic receptor; experiment: Dose response for HTS for Beta-2AR agonists via FAP method from Powderset1.; type: functional
[15] = molecular target: Tyrosine-protein phosphatase non-receptor type 11 (Homo sapiens, UniProt Q06124); experiment: PTPN11 enzyme inhibitors – biochemical, selectivity assay for STEP inhibitor project, dose response (AID 602367); type: functional; conditions: read-out: IC50_Mean
[16] = molecular target: Protein-tyrosine kinase 2-beta (Homo sapiens, UniProt Q14289);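 note: potency of inhibitors of PYK2 kinase phosphorylation of poly-GT substrate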
[17] = molecular target: T3, Tyrosine-protein phosphatase non-receptor type 7 (Homo sapiens, UniProt P35236); experiment: HePTP tyrosine phosphatase activity blockers – biochemical, absorbance, leukemia target, primary screen (AID 521); type: functional
T3 sequence (P35236 whole entry): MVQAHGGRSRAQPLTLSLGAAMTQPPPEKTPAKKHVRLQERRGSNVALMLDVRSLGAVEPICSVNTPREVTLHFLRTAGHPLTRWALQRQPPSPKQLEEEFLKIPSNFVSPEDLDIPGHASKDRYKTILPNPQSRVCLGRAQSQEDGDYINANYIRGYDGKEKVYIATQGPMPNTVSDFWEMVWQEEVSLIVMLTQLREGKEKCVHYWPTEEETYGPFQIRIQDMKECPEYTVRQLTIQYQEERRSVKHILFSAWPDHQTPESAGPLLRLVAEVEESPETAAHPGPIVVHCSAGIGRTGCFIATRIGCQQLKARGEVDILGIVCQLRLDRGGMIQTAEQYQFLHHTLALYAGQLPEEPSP

[18] = HIV-1 AD8 envelope cell-cell fusion blockers – cherry-pick, dose response (AID 652062); type: functional, cell-based;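 note: luciferase signal from cell-cell fusion driven by HIV-1 clade B AD8 Env; potency is for inhibitors of fusion seen as a drop in luminescence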
[19] = blockers of HIV-1 envelope-mediated cell-cell fusion – cherry-pick, dose response (AID 652057); type: functional, cell-based
[20] = viability loss in CEM21 cells – cell-based, CellTiter-Glo luminescence, cherry-picked, cytotoxicity control for viral fusion inhibitor project, dose response (AID 652042); type: functional;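 note: potency for signal decrease meaning cytotoxicity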
[21] = blockers of HIV-1 ZM109 envelope-driven cell-cell fusion – HeLa effector, CEM target cells, luciferase, cherry-pick, dose response (AID 652058); type: functional, cell-based;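 note: luciferase signal from HIV-1 Env mediated cell-cell fusion of effector and target cells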
cells [22] = type: functional, cell-based; remark: listed apart in the source
BJ [23] = experiment: BJ-TERT fibroblast viability loss – cell-based, RAS-independent, luminescence, dose response (AID 1933); type: functional; conditions: Homo sapiens
Paired box protein Pax-8 = Paired box protein Pax-8 (Homo sapiens, UniProt Q06710); experiment: PAX8 transcriptional activity inhibition in RMG-I – RMG-I cells, luciferase, cherry-pick, dose response (AID 687027); type: functional, cell-based;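 note: luciferase reporter driven by Pax8 target thyroperoxidase promoter measured by SteadyGlo luminescence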
BJ [24] = experiment: BJ-TERT-LT-ST fibroblast viability loss – cell-based, RAS-independent, luminescence, dose response (AID 1935); type: functional; conditions: Homo sapiens;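 note: BJ fibroblasts immortalized with TERT plus LT and ST oncogenes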
[25] = molecular target: Nuclear receptor subfamily 0 group B member 1 (Homo sapiens, UniProt P51843); type: functional, cell-based;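 note: HEK293T cells transfected with SF-1 and DAX-1 plus StAR promoter luciferase reporter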
BJ [26] = experiment: cells; type: functional, cell-based; conditions: Homo sapiens
[27] = DRD fibroblast viability loss – cell-based, non-viral oncogenic, luminescence, dose response (AID 1934); type: functional; conditions: Homo sapiens
[28] = Trypanosoma cruzi growth suppression in host cells – NIH3T3 host cells, beta-gal luminescence, confirmation (AID 2044); type: functional, cell-based;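 note: intracellular parasites grown in NIH/3T3 mouse fibroblasts as host cells; luminescent beta-galactosidase reporter signal from transgenic T. cruzi replicating inside host cells; inhibitors lower the luminescence signal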
[29] = NIH3T3 cell viability loss – ATP luminescence, mouse fibroblasts, counter-screen, dose response (AID 2010); type: functional, cell-based;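 note: cells exposed to compound for about 90 hours before reading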
[30] = molecular target: Fructose-bisphosphate aldolase (Mycobacterium tuberculosis, UniProt P9WQA3); experiment: Fluorescence-based biochemical high throughput dose response assay for inhibitors of the fructose-bisphosphate aldolase (FBA) of M. tuberculosis.; type: functional
Protein Tat = Protein Tat (Human immunodeficiency virus type 1 group M subtype B (isolate HXB2)(HIV-1), UniProt P04608); type: functional;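 note: tat binding to TAR RNA read out by fluorescence polarization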
Protein Tat, sequence (P04608 whole entry): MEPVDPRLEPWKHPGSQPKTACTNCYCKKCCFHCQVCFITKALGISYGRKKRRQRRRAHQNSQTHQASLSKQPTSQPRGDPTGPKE

T2 sequence (P07550 whole entry): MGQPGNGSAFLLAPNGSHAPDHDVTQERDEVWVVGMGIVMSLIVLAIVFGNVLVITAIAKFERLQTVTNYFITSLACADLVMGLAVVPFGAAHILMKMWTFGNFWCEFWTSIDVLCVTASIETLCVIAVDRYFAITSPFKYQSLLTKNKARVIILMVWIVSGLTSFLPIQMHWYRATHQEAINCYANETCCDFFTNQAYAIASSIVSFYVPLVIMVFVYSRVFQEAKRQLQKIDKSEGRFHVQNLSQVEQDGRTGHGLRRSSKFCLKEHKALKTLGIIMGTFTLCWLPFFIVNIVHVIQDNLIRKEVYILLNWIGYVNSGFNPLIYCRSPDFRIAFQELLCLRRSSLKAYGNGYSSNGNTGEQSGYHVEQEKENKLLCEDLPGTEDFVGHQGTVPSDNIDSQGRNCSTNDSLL
Protein-tyrosine kinase 2-beta, sequence (Q14289 whole entry): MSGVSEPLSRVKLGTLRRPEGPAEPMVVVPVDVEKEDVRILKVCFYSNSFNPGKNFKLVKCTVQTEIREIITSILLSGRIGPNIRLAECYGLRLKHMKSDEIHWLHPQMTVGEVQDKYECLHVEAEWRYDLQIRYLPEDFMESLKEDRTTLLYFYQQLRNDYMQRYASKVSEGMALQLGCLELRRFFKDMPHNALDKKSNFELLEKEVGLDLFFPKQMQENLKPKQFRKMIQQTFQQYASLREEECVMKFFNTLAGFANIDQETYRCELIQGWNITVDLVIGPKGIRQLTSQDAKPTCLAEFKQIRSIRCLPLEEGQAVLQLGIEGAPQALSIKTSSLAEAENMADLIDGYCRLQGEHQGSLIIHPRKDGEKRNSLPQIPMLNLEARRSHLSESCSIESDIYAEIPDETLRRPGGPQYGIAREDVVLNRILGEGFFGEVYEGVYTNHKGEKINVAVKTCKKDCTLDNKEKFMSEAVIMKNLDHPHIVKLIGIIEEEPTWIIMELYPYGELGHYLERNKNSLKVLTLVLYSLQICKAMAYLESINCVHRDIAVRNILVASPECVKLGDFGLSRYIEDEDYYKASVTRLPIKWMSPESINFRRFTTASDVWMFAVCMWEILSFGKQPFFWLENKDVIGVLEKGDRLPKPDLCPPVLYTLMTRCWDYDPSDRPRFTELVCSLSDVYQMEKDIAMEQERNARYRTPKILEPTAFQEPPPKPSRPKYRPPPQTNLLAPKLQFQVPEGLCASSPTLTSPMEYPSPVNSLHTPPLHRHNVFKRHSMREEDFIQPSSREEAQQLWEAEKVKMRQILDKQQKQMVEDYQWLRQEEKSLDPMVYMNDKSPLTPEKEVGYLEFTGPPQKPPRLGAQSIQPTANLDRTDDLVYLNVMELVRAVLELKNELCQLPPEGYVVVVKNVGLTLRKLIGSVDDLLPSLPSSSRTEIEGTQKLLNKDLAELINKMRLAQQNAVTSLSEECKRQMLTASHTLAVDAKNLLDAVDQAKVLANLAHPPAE
Tyrosine-protein phosphatase non-receptor type 11, sequence (Q06124 whole entry): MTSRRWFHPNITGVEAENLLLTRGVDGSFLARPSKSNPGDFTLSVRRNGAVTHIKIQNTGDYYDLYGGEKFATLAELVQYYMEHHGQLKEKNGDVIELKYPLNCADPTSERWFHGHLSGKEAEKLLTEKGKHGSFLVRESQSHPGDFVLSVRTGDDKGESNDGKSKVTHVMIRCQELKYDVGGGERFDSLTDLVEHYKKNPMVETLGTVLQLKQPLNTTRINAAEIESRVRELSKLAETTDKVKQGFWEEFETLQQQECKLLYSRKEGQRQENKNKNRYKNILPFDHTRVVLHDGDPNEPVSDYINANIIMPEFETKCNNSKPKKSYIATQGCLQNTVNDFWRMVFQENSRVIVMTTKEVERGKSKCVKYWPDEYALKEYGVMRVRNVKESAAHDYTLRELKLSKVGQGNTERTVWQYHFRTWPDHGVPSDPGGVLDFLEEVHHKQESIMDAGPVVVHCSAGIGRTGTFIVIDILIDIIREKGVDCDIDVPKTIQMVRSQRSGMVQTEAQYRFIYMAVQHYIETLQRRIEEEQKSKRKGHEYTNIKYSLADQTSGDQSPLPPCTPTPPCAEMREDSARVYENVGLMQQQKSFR
Cytochrome P450 2C9, sequence (P11712 whole entry): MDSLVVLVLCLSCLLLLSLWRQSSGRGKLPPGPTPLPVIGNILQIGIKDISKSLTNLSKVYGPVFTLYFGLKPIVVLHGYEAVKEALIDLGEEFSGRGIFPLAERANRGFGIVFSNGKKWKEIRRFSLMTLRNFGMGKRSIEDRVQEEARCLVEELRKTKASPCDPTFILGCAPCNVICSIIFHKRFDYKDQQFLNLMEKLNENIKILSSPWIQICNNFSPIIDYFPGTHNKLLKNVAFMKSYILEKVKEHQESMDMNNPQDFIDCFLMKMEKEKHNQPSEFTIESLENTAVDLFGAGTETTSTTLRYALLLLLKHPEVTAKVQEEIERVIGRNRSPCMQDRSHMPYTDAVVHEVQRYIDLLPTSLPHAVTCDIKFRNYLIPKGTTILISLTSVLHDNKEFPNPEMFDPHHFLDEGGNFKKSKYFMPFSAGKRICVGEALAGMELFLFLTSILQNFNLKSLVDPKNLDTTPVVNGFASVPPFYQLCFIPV
Tyrosine-protein phosphatase non-receptor type 5, sequence (P54829 whole entry): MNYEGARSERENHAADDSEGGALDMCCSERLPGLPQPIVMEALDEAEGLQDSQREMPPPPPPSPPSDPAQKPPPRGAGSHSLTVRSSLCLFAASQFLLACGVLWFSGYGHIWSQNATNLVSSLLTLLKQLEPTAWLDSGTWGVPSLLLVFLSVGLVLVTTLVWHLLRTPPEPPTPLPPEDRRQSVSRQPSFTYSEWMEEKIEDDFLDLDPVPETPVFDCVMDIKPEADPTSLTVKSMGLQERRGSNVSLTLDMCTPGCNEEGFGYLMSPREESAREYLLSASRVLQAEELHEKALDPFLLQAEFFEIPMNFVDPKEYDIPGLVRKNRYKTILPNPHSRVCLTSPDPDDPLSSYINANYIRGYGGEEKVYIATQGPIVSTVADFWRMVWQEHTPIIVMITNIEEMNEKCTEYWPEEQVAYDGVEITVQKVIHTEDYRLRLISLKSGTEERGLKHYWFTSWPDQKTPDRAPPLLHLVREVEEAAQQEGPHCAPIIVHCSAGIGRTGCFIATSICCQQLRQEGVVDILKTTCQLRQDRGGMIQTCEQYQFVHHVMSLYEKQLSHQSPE
Nuclear receptor subfamily 0 group B member 1, sequence (P51843 whole entry): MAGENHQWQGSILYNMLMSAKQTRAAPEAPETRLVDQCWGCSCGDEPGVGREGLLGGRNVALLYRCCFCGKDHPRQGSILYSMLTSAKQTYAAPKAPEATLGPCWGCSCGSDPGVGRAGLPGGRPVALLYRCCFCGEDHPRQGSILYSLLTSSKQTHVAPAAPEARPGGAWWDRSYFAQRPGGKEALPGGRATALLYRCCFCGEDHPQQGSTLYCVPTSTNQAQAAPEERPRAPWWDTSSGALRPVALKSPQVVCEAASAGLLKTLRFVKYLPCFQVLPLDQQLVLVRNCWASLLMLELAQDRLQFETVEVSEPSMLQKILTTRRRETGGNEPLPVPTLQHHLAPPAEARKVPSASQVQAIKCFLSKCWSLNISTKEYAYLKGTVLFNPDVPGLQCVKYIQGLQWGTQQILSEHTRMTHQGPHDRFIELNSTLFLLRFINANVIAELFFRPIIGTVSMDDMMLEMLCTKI
Fructose-bisphosphate aldolase, sequence (P9WQA3 whole entry): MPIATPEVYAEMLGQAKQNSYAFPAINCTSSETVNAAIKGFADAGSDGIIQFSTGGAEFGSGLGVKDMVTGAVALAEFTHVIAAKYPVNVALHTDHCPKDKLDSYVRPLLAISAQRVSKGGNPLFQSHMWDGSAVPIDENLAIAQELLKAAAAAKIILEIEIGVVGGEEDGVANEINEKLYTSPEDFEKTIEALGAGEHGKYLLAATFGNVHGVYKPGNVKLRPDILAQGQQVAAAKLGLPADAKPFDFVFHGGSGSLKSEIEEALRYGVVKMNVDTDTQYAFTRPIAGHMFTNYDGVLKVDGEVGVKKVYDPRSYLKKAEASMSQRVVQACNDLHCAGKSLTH
Paired box protein Pax-8, sequence (Q06710 whole entry): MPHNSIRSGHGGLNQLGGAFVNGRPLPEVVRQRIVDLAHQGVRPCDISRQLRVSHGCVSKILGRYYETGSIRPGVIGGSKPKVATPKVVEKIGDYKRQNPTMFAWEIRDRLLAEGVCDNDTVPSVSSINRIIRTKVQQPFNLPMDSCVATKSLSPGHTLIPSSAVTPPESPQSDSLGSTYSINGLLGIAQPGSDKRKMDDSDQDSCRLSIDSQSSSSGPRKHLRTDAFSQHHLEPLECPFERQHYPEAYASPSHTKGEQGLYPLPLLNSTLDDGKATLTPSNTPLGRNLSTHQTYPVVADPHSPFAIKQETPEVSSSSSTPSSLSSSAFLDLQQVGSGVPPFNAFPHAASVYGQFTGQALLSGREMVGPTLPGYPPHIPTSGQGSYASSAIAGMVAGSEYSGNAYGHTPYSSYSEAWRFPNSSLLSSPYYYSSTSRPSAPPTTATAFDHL
Dual specificity protein phosphatase 3, sequence (P51452 whole entry): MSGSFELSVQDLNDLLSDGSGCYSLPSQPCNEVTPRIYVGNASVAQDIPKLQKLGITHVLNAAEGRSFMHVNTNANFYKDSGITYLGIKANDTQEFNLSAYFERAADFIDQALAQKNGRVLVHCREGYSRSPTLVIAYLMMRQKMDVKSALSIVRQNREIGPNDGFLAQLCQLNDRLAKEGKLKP
X-box-binding protein 1, sequence (P17861 whole entry): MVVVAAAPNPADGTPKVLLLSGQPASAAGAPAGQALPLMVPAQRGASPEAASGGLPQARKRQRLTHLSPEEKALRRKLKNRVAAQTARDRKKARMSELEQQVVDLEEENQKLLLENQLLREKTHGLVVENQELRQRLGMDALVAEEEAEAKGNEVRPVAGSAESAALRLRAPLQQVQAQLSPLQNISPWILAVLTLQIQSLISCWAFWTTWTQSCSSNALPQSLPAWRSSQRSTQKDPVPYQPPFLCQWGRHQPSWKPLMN

Cc1cc(Cl)n2c(nc3cc(F)c(F)cc32)c1C#N
EC50 (cells [1]): 54.5 µM (active) | EC50 (cells [2]): > 350 µM (not active) | Absolute IC50 (XBP1) (X-box-binding protein 1): 10 µM | AC50 [3]: 6.62 µM (active) | AC50 [4]: 3.56 µM (active) | EC50 (HEK293 [5]): > 59.6 µM (inactive) | AC50 [6]: 4.49 µM (active) | EC50 (HEK293 [7]): > 59.6 µM (inactive) | EC50 (BJ [8]): 0.139 µM (inconclusive) | EC50 [9]: 3.35 µM (active) | AC50 [10]: 14.8 µM (active)

CCc1ccc(OCC(=O)Nc2ccc(-c3nc4ccccc4o3)c(O)c2)cc1
AC50 (Cytochrome P450 2C9): inconclusive | IC50 [11]: 0.767 µM (active) | IC50 [12]: 3.98 µM (active) | EC50 [13]: 0.476 µM (active) | EC50 [14]: 0.261 µM (active) | IC50 [15]: 0.368 µM (active) | IC50 [16]: > 69.5 µM (not active) | IC50 [17]: 5.28 µM (active)

Cc1nc2ccc(NC(=O)c3ccc(Cl)c(S(=O)(=O)N(C)c4ccccc4)c3)cc2s1
AC50 [18]: 3.19 µM (active) | AC50 [19]: 35.5 µM (active) | AC50 [20]: 58.6 µM (active) | AC50 [21]: 3.88 µM (active)

CCOC(=O)N1CCC(NC(=O)c2ccc3c(c2)N=C(C)c2c(C)ccc(C)c2S3)CC1
IC50 (cells [22]): > 67.5 µM (inactive) | EC50 (BJ [23]): 1.52 µM (active) | AC50 (Paired box protein Pax-8): 3.05 µM (active) | EC50 (BJ [24]): 1.43 µM (active) | IC50 [25]: > 67.5 µM (inactive) | EC50 (BJ [26]): 29.3 µM (active) | EC50 [27]: 1.12 µM (active)

Cc1c(C(=O)Nc2ccc(Cl)cc2)c2ccccn2c1CCc1ccncc1
EC50 [28]: 2.16 µM (active) | EC50 [29]: > 30 µM (not active) | IC50 [30]: 0.468 µM (active) | IC50 (Protein Tat): > 100 µM (active)
